Laboratory results published in patent publication US20240058387A1, “CULTURE MEDIUM COMPOSITION FOR AMPLIFYING AND MAINTAINING SELF-RENEWAL CAPACITY AND DIFFERENTIATION POTENTIAL OF HSCS AND APPLICATION THEREOF” (EDIGENE (GUANGZHOU) INC., priority 2020, published 2024).

How the values were obtained:
[1] = system: umbilical cord blood-derived CD34+ cells; test: Cell counting: total cell number and absolute number of marker-positive cells after small molecule induction; type: cell-based, human; settings: 6 days
Protocol: According to the solubility and required solvent indicated in the instructions of the small molecule inhibitor (see Table 1 for the Cat. number of the small molecule inhibitor), the preparation of the small molecule inhibitor stock solution was carried out. Next, the hematopoietic stem cell medium was prepared: SFEM II medium (stem cell, Cat. number: 09655)+50 ng/ml growth factor Flt-3L (PeProtech, Cat. number: 300-100UG)+50 ng/ml growth factor SCF (PeProtech, Cat. number): 300-07-100UG)+50 ng/ml growth factor TPO (PeProtech, Cat. number: 300-18-100UG)+10 ng/ml interleukin IL-6 (PeProtech, Cat. number: 200-06-20UG)+1% bispecific antibody (HyClone, Cat. No.: sv30010). According to the set concentration gradient of the small molecule inhibitor, the stock solution and the basal medium were used to prepare the medium containing different concentrations of the small molecule inhibitor.
First, the prepared medium was added to a 24-well plate (Corning, Cat. number: 3473), 950 μl per well, and placing it in a carbon dioxide incubator (Thermo, model: 3111) to preheat; resuspending the spare umbilical cord Blood-derived HSCs of Example 1 with SFEM 11+50 ng/ml Flt-3L+50 ng/ml SCF+50 ng/ml TPO+10 ng/ml IL-6+1% bispecific antibody, calculating the medium volume to be added according to 50 μl cell suspension per well and 2*10^5/m1 cell density per well. For example, when the final volume of the cell culture solution per well was 1 ml, the total number of cells per well was 2*10^5 cells calculated according to the cell density per well, and the density of the […] of cell suspension supplemented to each well is 4*10^6/ml. The density of the spare HSCs of Example 1 was adjusted to the calculated density of the cell suspension, and adding it; taking out the preheated medium from the incubator, adding 50 μl of the cell suspension to each well, and after mixing, using the microscope (OLYMPUS, model: CKX53) to observe the cells state, and then putting it into an incubator for culturing.
On the umbilical cord blood-derived CD34+ cells sorted in Example 1, the optimal concentration of the screened-out inhibitor AG1296 was screened in the same way as in Example 2. After 6 days of induction with different concentrations of the small molecule inhibitor AG1296, the expression of LT-HSCs cell surface markers (CD34+CD45+CD90+CD45RA−CD38−) was detected by flow cytometry using the same method as in Example 3. 20 μL of cell suspension was taken to count in a cell counter (Nexcelom, model: Cellometer K2) on the 6th day of culture, calculating the absolute number of the final CD34+ cells and LT-HSCs on the 6th day (absolute number of cells=total number of cells*sternness ratio). The results were shown in FIGS. 3A-3B and FIGS. 4A-4B, respectively.

[2] = system: umbilical cord blood-derived CD34+ cells; test: In vivo transplantation of in vitro cultured CD34+ cells into irradiated immunodeficient NPG mice; settings: FIG. 8A, cells cultured with 1 μM AG1296 (SR1 5 μM), week 18 after transplantation
Protocol: On the umbilical cord blood-derived CD34+ cells sorted in Example 1, the effects of the screened small molecule inhibitor AG1296 and the inhibitor SR1 reported in the literature on the in vivo hematopoietic system reconstitution ability was compared.
Preparation of cell medium: SFEM II+100 ng/ml Flt-3L+100 ng/ml SCF+100 ng/ml TPO+20 ng/ml IL-6+1% bispecific antibody. Cat. numbers of the medium, growth factor, bispecific antibody, etc. were as described in Example 2. According to the groups set in Table 4, different small molecule inhibitors were added.
The prepared cell medium was added to a 24-well plate, 950 μl per well, and placing it in a carbon dioxide incubator to preheat; using SFEMII+100 ng/ml Flt-3L+100 ng/ml SCF+100 ng/ml TPO+20 ng/ml IL-6+1% bispecific antibody to resuspend the spare umbilical cord blood-derived HSCs of Example 1. The medium volume required to resuspend the cells was calculated according to 50 μl of cell suspension was added to each well, and 0.28*10^5/ml cell density per well was; taking out the preheated medium from the incubator, adding 50 μl of resuspended cell suspension to each well, mixing well, observing the cell state under a microscope, and then putting them into the incubator for culture. […]
The proportions of human CD45, human CD19, human CD3, human CD33 and human CD56 in mouse bone marrow cells were detected by flow cytometry. […]

[3] = FIG. 3B, 1 μM, 5 μM and 10 μM, vs Mock

COc1cc2ncc(-c3ccccc3)nc2cc1OC [AG1296]
total cell number ([1]; FIG. 3B, 1 μM vs 5 μM and 10 μM): higher cell numbers than that at concentrations of 5 μM and 10 μM
absolute number of proliferating LT-HSCs ([1]; FIG. 3B, 1 μM, 5 μM and 10 μM): better effect
effect on cell proliferation ([1]; FIG. 3B, 1 μM, 5 μM and 10 μM): slightly inhibited cell proliferation
absolute number of CD34+CD90+CD45RA- cells [1, 3]: significantly better than the Mock group
absolute numbers of CD34+ cells [1, 3]: lower than that in the mock group
absolute number of proliferating LT-HSCs relative to other groups ([1]; FIG. 4B, 1 μM): 1-2 times
effect on cell proliferation ([1]; FIG. 4B, 1 μM): slightly inhibited cell proliferation
absolute number of CD34+ cells ([1]; FIG. 4B, 1 μM, vs Mock, 100 nM, 500 nM groups): not significantly better than other groups
absolute number of CD34+CD90+, and CD34+CD90+CD45RA- cells ([1]; FIG. 4B, 1 μM, vs other groups): significantly better than other groups
bone marrow transplantation efficiency (proportion of human CD45+ cells in mouse bone marrow cells) [2]: significantly higher than that of the Mock group and the SR1 group
